In the CheMixHub viscosity set:
Several values for one entry are separate records, joined by “and”; a condition that tells them apart may be missing. Equal values may be shown once. ± gives the uncertainty stated by the source.

Experiment: xn = mol fraction of the nth substance listed

CCCC(C)O (stereo unspecified) + O
298.15 K, 101 kPa
Conditions | viscosity [mPa·s]
x2 = 0.008 | 3.443 ± 0.032
x2 = 0.0721 | 3.234 ± 0.032
x2 = 0.0934 | 3.182 ± 0.033
x2 = 0.1359 | 3.129 ± 0.034
x2 = 0.1655 | 3.111 ± 0.035
x2 = 0.1981 | 3.104 ± 0.037
x2 = 0.2187 | 3.114 ± 0.038
x2 = 0.2403 | 3.119 ± 0.039
x2 = 0.255 | 3.125 ± 0.04
x2 = 0.2971 | 3.163 ± 0.042

CCCCCCCCCCCCOS(=O)(=O)[O-].[Na+] + O
101.33 kPa
Conditions | viscosity [mPa·s]
303.15 K, x1 = 0.000252 | 0.8085 ± 0.017
308.15 K, x1 = 0.000324 | 0.7345 ± 0.015
308.15 K, x1 = 0.000432 | 0.7465 ± 0.016
313.15 K, x1 = 7.2e-05 | 0.6585 ± 0.014

CCN(C=O)CC + O
298.16 K, 101 kPa
Conditions | viscosity [mPa·s]
x2 = 0.1029 | 1.23 ± 0.01
x2 = 0.247 | 1.47 ± 0.01
x2 = 0.3904 | 1.84 ± 0.02
x2 = 0.5426 | 2.38 ± 0.02
x2 = 0.6681 | 2.83 ± 0.02
x2 = 0.7344 | 3 ± 0.02
x2 = 0.7646 | 3.01 ± 0.02
x2 = 0.8236 | 2.9 ± 0.02
x2 = 0.8813 | 2.53 ± 0.02

CC[N+](CC)(CC)CC.[OH-] + O
viscosity [mPa·s], 101 kPa
Conditions | x1 = 0.00313 | x1 = 0.0064 | x1 = 0.01341 | x1 = 0.02113 | x1 = 0.02968 | x1 = 0.03918 | x1 = 0.04982
298.15 K | 0.9776 ± 0.017 | 1.114 ± 0.02 | 1.248 ± 0.023 | 1.659 ± 0.031 | 2.07 ± 0.039 | 2.869 ± 0.056 | 3.679 ± 0.073
303.15 K | 0.8738 ± 0.016 | 0.9902 ± 0.018 | 1.107 ± 0.02 | 1.453 ± 0.027 | 1.8 ± 0.034 | 2.455 ± 0.048 | 3.111 ± 0.062
313.15 K | 0.7149 ± 0.013 | 0.8019 ± 0.014 | 0.8902 ± 0.016 | 1.144 ± 0.021 | 1.399 ± 0.026 | 1.856 ± 0.036 | 2.313 ± 0.046
323.15 K | 0.6005 ± 0.011 | 0.6598 ± 0.012 | 0.7359 ± 0.013 | 0.9278 ± 0.017 | 1.121 ± 0.021 | 1.45 ± 0.028 | 1.779 ± 0.035

O=P([O-])(O)O.[Li+] + O
viscosity [mPa·s], 101 kPa
Conditions | x1 = 0.0018 | x1 = 0.0054 | x1 = 0.0089 | x1 = 0.012 | x1 = 0.016
298.15 K | 0.9076 ± 0.0079 | 1.021 ± 0.0091 | 1.099 ± 0.0099 | 1.209 ± 0.011 | 1.318 ± 0.011
303.15 K | 0.8338 ± 0.0075 | 0.9078 ± 0.0084 | 0.9891 ± 0.009 | 1.084 ± 0.01 | 1.211 ± 0.011
308.15 K | 0.7493 ± 0.0071 | 0.8183 ± 0.0076 | 0.888 ± 0.0083 | 0.9579 ± 0.0092 | 1.028 ± 0.011

[Cl-].[Li+] + O
Conditions | viscosity
293.15 K, 101 kPa, x1 = 0.17 | 4.51 ± 0.22 mPa·s
293.15 K, 101 kPa, x1 = 0.19 | 6.01 ± 0.29 mPa·s
293.15 K, 101 kPa, x1 = 0.2 | 7.36 ± 0.35 mPa·s
293.15 K, 101 kPa, x1 = 0.22 | 9.66 ± 0.46 mPa·s
293.15 K, 101 kPa, x1 = 0.23 | 10.29 ± 0.49 mPa·s
293.15 K, 101 kPa, x1 = 0.24 | 11.28 ± 0.54 mPa·s and 12.73 ± 0.61 mPa·s
293.15 K, 101 kPa, x1 = 0.25 | 14.55 ± 0.7 mPa·s
293.15 K, 101 kPa, x1 = 0.26 | 15.87 ± 0.76 mPa·s
293.15 K, 101 kPa, x1 = 0.27 | 17.76 ± 0.86 mPa·s
298.15 K, 101 kPa, x1 = 0.26 | 16.51 ± 0.47 mPa·s
298.15 K, 101.33 kPa, x1 = 0.2626 | 10.73 ± 0.43 mPa·s
303.15 K, 101 kPa, x1 = 0.17 | 3.42 ± 0.16 mPa·s
303.15 K, 101 kPa, x1 = 0.19 | 4.61 ± 0.22 mPa·s
303.15 K, 101 kPa, x1 = 0.2 | 5.59 ± 0.27 mPa·s
303.15 K, 101 kPa, x1 = 0.22 | 7.24 ± 0.35 mPa·s
303.15 K, 101 kPa, x1 = 0.23 | 7.44 ± 0.36 mPa·s
303.15 K, 101 kPa, x1 = 0.24 | 8.19 ± 0.39 mPa·s and 9.29 ± 0.45 mPa·s
303.15 K, 101 kPa, x1 = 0.25 | 10.53 ± 0.51 mPa·s
303.15 K, 101 kPa, x1 = 0.26 | 11.37 ± 0.55 mPa·s
303.15 K, 101 kPa, x1 = 0.27 | 12.85 ± 0.62 mPa·s
310.15 K, 101 kPa, x1 = 0.000205 | 0.7179 ± 0.0063 mPa·s
310.15 K, 101 kPa, x1 = 0.00126 | 0.7026 ± 0.0062 mPa·s
310.15 K, 101 kPa, x1 = 0.001978 | 0.7036 ± 0.0062 mPa·s
310.15 K, 101 kPa, x1 = 0.002695 | 0.6772 ± 0.006 mPa·s
310.15 K, 101 kPa, x1 = 0.003679 | 0.6492 ± 0.0058 mPa·s
310.15 K, 101 kPa, x1 = 0.005197 | 0.5792 ± 0.0053 mPa·s
310.15 K, 101 kPa, x1 = 0.005988 | 0.5574 ± 0.0051 mPa·s
313.15 K, 101 kPa, x1 = 0.17 | 2.73 ± 0.13 mPa·s
313.15 K, 101 kPa, x1 = 0.19 | 3.59 ± 0.17 mPa·s
313.15 K, 101 kPa, x1 = 0.2 | 4.32 ± 0.21 mPa·s
313.15 K, 101 kPa, x1 = 0.22 | 5.44 ± 0.26 mPa·s
313.15 K, 101 kPa, x1 = 0.23 | 5.67 ± 0.27 mPa·s
313.15 K, 101 kPa, x1 = 0.24 | 6.36 ± 0.3 mPa·s and 6.96 ± 0.33 mPa·s
313.15 K, 101 kPa, x1 = 0.25 | 7.83 ± 0.38 mPa·s
313.15 K, 101 kPa, x1 = 0.26 | 8.46 ± 0.41 mPa·s
313.15 K, 101 kPa, x1 = 0.27 | 9.36 ± 0.45 mPa·s
323.15 K, 101 kPa, x1 = 0.17 | 2.26 ± 0.11 mPa·s
323.15 K, 101 kPa, x1 = 0.19 | 2.94 ± 0.14 mPa·s
323.15 K, 101 kPa, x1 = 0.2 | 3.49 ± 0.17 mPa·s
323.15 K, 101 kPa, x1 = 0.22 | 4.37 ± 0.21 mPa·s
323.15 K, 101 kPa, x1 = 0.23 | 4.48 ± 0.21 mPa·s
323.15 K, 101 kPa, x1 = 0.24 | 4.99 ± 0.24 mPa·s and 5.38 ± 0.26 mPa·s
323.15 K, 101 kPa, x1 = 0.25 | 6.06 ± 0.29 mPa·s
323.15 K, 101 kPa, x1 = 0.26 | 6.55 ± 0.31 mPa·s
323.15 K, 101 kPa, x1 = 0.27 | 7.22 ± 0.35 mPa·s
